The test system of the series is HBV replication in HepG2/2.2.15 cells. The experiment in a line: Antiviral efficiency of synthetic gRNA/Cas9 RNPs in HepG2/2.2.15 cells (HBsAg/HBeAg ELISA, HBV mRNA and HBV DNA real-time PCR). The format is cell-based, Hepatitis B virus (HBV). Also noted: reduction in HBsAg expression / reduction of HBV mRNA expression: concentration or dose not given beside the values. As to conditions: for reduction of HBV mRNA expression: HepG2/2.2.15 cells, real-time PCR, vs gRNAc; for reduction in HBsAg expression: HepG2/2.2.15 supernatant, 3 days after nucleofection, ELISA, vs scrambled gRNAc; for antiviral efficacy among the 9 gRNAs tested: HepG2.2.15 cells. As for the experimental part: The HepG2.2.15 Human Hepatoblastoma cell line (Cat #SCC249, MilliporeSigma, Burlington, MA) is a traditional HBV cellular model that is widely used for studying HBV infection and drug development. HepG2.2.15 cells display constitutive HBV RNA transcription and DNA replication, but a lesser detection of cccDNA by Southern blot and PCR detection. The HepG2/2.2.15 cells were cultured in DMEM (Cat #MT10013CV, Fisher Scientific, Waltham, MA) supplemented with 10% Fetal bovine serum, penicillin, and streptomycin (50 ug/ml each; Fisher Scientific) and maintained at 37° C. and 5% CO2 atmosphere. The Amaxa Cell Line Nucleofector Kit V (Lonza VCA-1003) was used to deliver gRNA/Cas9 into HepG2/2.2.15 cells stably expressing HBV. For each transfection, 160 μM gRNA and 160 μM tracrRNA were first incubated at 37° C. for 30 minutes, followed by adding 80 μM Cas9 protein and incubating at 37° C. for 15 minutes. Approximately 40 μM of the gRNA/Cas9 complex was transfected into HepG2/2.2.15 cells (5×10^5) following the manufacturer's instructions. After 72 hours, the culture supernatants were harvested to measure HBV antigens by ELISA, and the cell pellets were used to determine HBV DNA or mRNA levels by real-time-PCR.
The levels of HBsAg and HBeAg in the supernatants of cell cultures were determined by ELISA (Cat #KA0286 and NBP2-600029, Novus Biologicals, Littleton, CO) according to the manufacturer's protocol. The optical density of antigen levels was measured at 450 nm using a microplate spectrophotometer. The samples were run in triplicate, and the experiments were repeated at least three times.
Total RNA was extracted from the cell pellets by the RNeasy Mini kit (Cat #74104, QIAGEN, Germantown, MD), and 1 μg RNA was converted to cDNA using the Applied Biosystems High-Capacity cDNA Reverse Transcription Kit (Cat #43-688-14, ThermoFisher, Waltham, MA). Quantitative real-time PCR (real-time-qPCR) was performed using iTaq Universal SYBR Green Supermix (Cat #1725124, Bio-Rad, Hercules, CA). The PCR primers were: HBV mRNA forward, 5′-[…]-3′ (SEQ ID NO: 52), reverse, 5′-[…]-3′ (SEQ ID NO: 53); HBV pgRNA forward 5′-[…]-3′ (SEQ ID NO: 54), reverse 5′-[…]-3′ (SEQ ID NO: 55); and GAPDH forward 5′-[…]-3′ (SEQ ID NO: 56), reverse 5′-[…]-3′ (SEQ ID NO: 57). The gene expression levels were determined by the […] method and values were normalized to GAPDH expression as an internal control.
Total and protein-free HBV DNAs were extracted from whole cell lysate using the Hirt DNA method according to a previously published protocol. For HBV cccDNA analysis, the protein-free DNA was treated with 10 units of T5 exonuclease (NEB) at 37° C. for 30 min, followed by 95° C. for 5 min, and diluted 4-fold with nuclease-free water. Next, the cccDNA was cleaned with a DNA clean and concentrator kit (ZYMO Research, Irvine, CA) and used for PCR. HBV total DNA and cccDNA were analyzed by real-time PCR using a TaqMan PCR assay. The primers and probe used to amplify HBV total DNA were: HBV total DNA forward: 5′-[…]-3′ (SEQ ID NO: 58), reverse 5′-[…]-3′ (SEQ ID NO: 59), and internal probe: 5′-FAM-[…]-TAMRA-3′ (SEQ ID NO: 60). The primers and probe used to amplify HBV cccDNA (Genotype D, subtype ayw) were: forward: 5′-[…]-3′ (SEQ ID NO: 61), reverse 5′-[…]-3′ (SEQ ID NO: 62), and internal probe 5′-FAM-[…]-TAMRA-3′ (SEQ ID NO: 63). The PCR reactions were performed in 20 μl volumes and contained 2 μl DNA. The PCR conditions were: 95° C. for 10 min, followed by 45 cycles of 95° C. for 15 s and 64° C. for 30 s. The DNA levels were determined by the […] method and values were normalized to the control group.
Because the hepatoma cell line HepG2/2.2.15 is a traditional HBV cellular model used to test the efficacy and cytotoxicity of anti-HBV drugs, the synthetic gRNA/Cas9 RNPs were tested for their antiviral efficiency in HepG2/2.2.15 cells. […]
Background: In an ELISA, binding on a coated surface is turned into a signal by an enzyme label.

For the sequence GGTCTCCATGCGACGTGCAGNGG [gRNA9], the “reduction of HBV mRNA expression” value is recorded as ~ 50%; the “reduction in HBsAg expression” value was 50%; the “antiviral efficacy among the 9 gRNAs tested” value was “most specific and potent antiviral efficacy”.
On to “GTTATCGCTGGATGTGTCTGNGG (guide GUUAUCGCUGGAUGUGUCUGNGG; complexed with Cas9 protein, chemistry not fully specified) [gRNA5, tested as synthetic gRNA/Cas9 RNP]”, for which the “reduction of HBV mRNA expression” value is on record as ~ 50%; the “reduction in HBsAg expression” value amounted to 50%; the “antiviral efficacy among the 9 gRNAs tested” value is “most specific and potent antiviral efficacy”.

The values above are taken from patent publication US20260191793A1, “HBV SPECIFIC EXOSOMES AND USES THEREOF” (priority 2022, published 2026).
